Results: patent publication US20120277269A1 (priority 2008, published 2012)
Several values for one entry are separate records, joined by “and”; a condition that tells them apart may be missing. Equal values may be shown once. Read-outs that look alike come from different tables or passages of the source.

Columns and labels:
[1] = test system: patients with atrial fibrillation
Description: The PETRO-Ex study was conducted in 52 centers in the United States, Denmark, The Netherlands, and Sweden.
PETRO-Ex began while the PETRO study was ongoing and investigators were initially kept blinded to patient treatment group until PETRO was completed.
Data were summarized descriptively; no hypothesis was to be tested. Events were analyzed on the basis of the treatment at onset. Incidences were reported as number of patients with events as well as normalized to 100 patient-years on the respective treatment.
Patients who completed PETRO on 50 mg b.i.d. were switched to 150 mg q.d. upon entry in the PETRO-Ex study (N=93 patients). […] Patients who were down titrated to 50 mg q.d. based on a glomerular filtration rate ≦50 mL/min during PETRO were excluded from the long-term trial; patients down-titrated in other dose levels remained on the q.d. treatment at that dose.
The total exposure reflects both trials, PETRO and PETRO-Ex, together.

[2] = human, in vivo
Description: Ezekowitz M D, et al., Dabigatran with or without concomitant aspirin compared with warfarin alone in patients with nonvalvular atrial fibrillation (PETRO study), Am. […] The PETRO study is described below.
Peak levels are seen within 2-3 hours of oral administration. […] Steady-state is reached within 2-3 days with a twice daily regimen. […] The remainder undergoes conjugation with glucuronic acid to form acylglucuronides which are excreted primarily in the bile.

[3] = test system: patients with chronic atrial fibrillation; assay: PETRO phase 2 12-week dose finding study; assay type: in vivo, human
From the text: Primary endpoints were bleeding events and changes in D-dimer. […] Minor bleeding was dose related.

[4] = test system: activated partial thromboplastin time (aPTT), ecarin clotting time, and thrombin clotting time; assay: Anticoagulant pharmacodynamics (clotting times)
[5] = test system: Patients with Non-Valvular Atrial Fibrillation; settings: in vivo; cited from earlier work
[6] = test system: patients with atrial fibrillation at risk of stroke; design: Stroke, Ischemic or Unspecified, RR: dose or concentration left out as unconfirmed
From the text: Median follow-up was 2.0 years and the primary outcome was stroke or systemic embolism.
Patients were recruited from 951 clinical centers in 44 countries. In brief, patients were eligible if they had atrial fibrillation documented on electrocardiogram at screening or within 6 months; and at least one of the following: prior stroke or transient ischemic attack; left ventricular ejection fraction less than 40%; New York Heart Association heart failure symptoms of Class 2 or greater within 6 months; age at least 75 years; or age at least 65 years with diabetes mellitus, hypertension or coronary artery disease.
The time in therapeutic range was calculated by the method of Rosendaal (Rosendaal F R, et al., A method to determine the optimal intensity of oral anticoagulant therapy, Thromb Haemost, 1993, 69:236-239), excluding INRs from the first week and after discontinuations. […] Concomitant use of aspirin (less than 100 mg/day) or other antiplatelet agents was allowed.
Liver function testing was performed monthly during the first year of follow-up.
The primary study outcome was stroke or systemic embolism. The primary safety outcome was major hemorrhage. Secondary outcomes were stroke, systemic embolism and death. Other outcomes were myocardial infarction, pulmonary embolism, transient ischemic attacks, and hospitalizations. The primary net benefit-risk outcome was the composite of stroke, systemic embolism, pulmonary embolism, myocardial infarction, death or major hemorrhage. Stroke was defined as sudden onset of focal neurological deficit consistent with the territory of a major cerebral artery and categorized as ischemic, hemorrhagic or unspecified. Hemorrhagic transformation of ischemic stroke was not considered as hemorrhagic stroke. Intracranial hemorrhage included hemorrhagic stroke and sub-dural or sub-arachnoid hemorrhage. Systemic embolism was an acute vascular occlusion of an extremity or organ documented by imaging, surgery or autopsy. Major bleeding was defined as a reduction in hemoglobin level of at least […] or transfusion of at least 2 units of blood or symptomatic bleeding in a critical area or organ. Life-threatening bleeding was a subset of major bleeding that included fatal bleeding, symptomatic intracranial bleeding, bleeding with hemoglobin decrease of more than […] or requiring transfusion of more than 4 units of blood or requiring inotropic agents or necessitating surgery. All other bleeding was considered minor.
All primary and secondary outcome events were blindly and doubly adjudicated. An international team of adjudicators reviewed documents in local languages after blinding; or documents were translated by a independent group and blinded centrally. All transient ischemic attacks were reviewed to ensure that strokes had not been missed. To detect possible unreported events, symptom questionnaires were regularly administered to patients, and adverse events and hospitalization reports were scrutinized for unreported primary or secondary outcomes.
If maximum of the two p-values was greater than 0.025, the minimum of the two p-values must be less than 0.0125, one-sided, to claim statistical significance. All analyses were based on intention-to-treat.

[7] = individual patients with LFT abnormalities, one table line per patient (age c0, sex c1), # = with concomitant Bilirubin elevation to >2xULN

CCCCCCOC(=O)NC(=N)c1ccc(NCc2nc3cc(C(=O)N(CCC(=O)OCC)c4ccccn4)ccc3n2C)cc1 [Dabigatran etexilate, 1-methyl-2-[N-[4-(N-n-hexyloxycarbonylamidino)phenyl]aminomethyl]benzimidazol-5-ylcarboxylic ac id-N-(2-pyridyl)-N-(2-ethoxycarbonylethyl)amides]
ALT or AST >2xULN, number of patients ([1]; 50 mg b.i.d.): 0
ALT or AST >3xULN and Bili >2xULN within 30 days, number of patients ([1]; 50 mg b.i.d.): 0
ALT or AST >3xULN, number of patients ([1]; 50 mg b.i.d.): 0
ALT or AST >5xULN, number of patients ([1]; 50 mg b.i.d.): 0
Adverse Events leading to premature discontinuation, number of patients ([1]; 50 mg b.i.d.): 5
MI, number of patients ([1]; 50 mg b.i.d.): 0
Major Bleeds with aspirin, number of patients ([1]; 50 mg b.i.d.): 0
Major Bleeds without aspirin, number of patients ([1]; 50 mg b.i.d.): 0
Major Bleeds, number of patients ([1]; 50 mg b.i.d.): 0
Other MACE, number of patients ([1]; 50 mg b.i.d.): 2
Stroke and Systemic Thromboembolism, number of patients ([1]; 50 mg b.i.d.): 3
TIA, number of patients ([1]; 50 mg b.i.d.): 0
ALT or AST >2xULN, number of patients ([1]; 50 mg q.d.): 0
ALT or AST >3xULN and Bili >2xULN within 30 days, number of patients ([1]; 50 mg q.d.): 0
ALT or AST >3xULN, number of patients ([1]; 50 mg q.d.): 0
ALT or AST >5xULN, number of patients ([1]; 50 mg q.d.): 0
Adverse Events leading to premature discontinuation, number of patients ([1]; 50 mg q.d.): 0
MI, number of patients ([1]; 50 mg q.d.): 0
Major Bleeds with aspirin, number of patients ([1]; 50 mg q.d.): 0
Major Bleeds without aspirin, number of patients ([1]; 50 mg q.d.): 0
Major Bleeds, number of patients ([1]; 50 mg q.d.): 0
Other MACE, number of patients ([1]; 50 mg q.d.): 0
Stroke and Systemic Thromboembolism, number of patients ([1]; 50 mg q.d.): 0
TIA, number of patients ([1]; 50 mg q.d.): 0
ALT or AST >2xULN, number of patients ([1]; 150 mg b.i.d.): 21
ALT or AST >3xULN and Bili >2xULN within 30 days, number of patients ([1]; 150 mg b.i.d.): 3
ALT or AST >3xULN, number of patients ([1]; 150 mg b.i.d.): 13
ALT or AST >5xULN, number of patients ([1]; 150 mg b.i.d.): 7
Adverse Events leading to premature discontinuation, number of patients ([1]; 150 mg b.i.d.): 67
MI, number of patients ([1]; 150 mg b.i.d.): 6
Major Bleeds with aspirin, number of patients ([1]; 150 mg b.i.d.): 11
Major Bleeds without aspirin, number of patients ([1]; 150 mg b.i.d.): 18
Major Bleeds without aspirin, rate ([1]; 150 mg b.i.d.): 3.2 % per year
Major Bleeds, number of patients ([1]; 150 mg b.i.d.): 29
Other MACE, number of patients ([1]; 150 mg b.i.d.): 7
Stroke and Systemic Thromboembolism, number of patients ([1]; 150 mg b.i.d.): 7
TIA, number of patients ([1]; 150 mg b.i.d.): 1
ALT or AST >2xULN, number of patients ([1]; 150 mg q.d.): 2
ALT or AST >3xULN and Bili >2xULN within 30 days, number of patients ([1]; 150 mg q.d.): 0
ALT or AST >3xULN, number of patients ([1]; 150 mg q.d.): 0
ALT or AST >5xULN, number of patients ([1]; 150 mg q.d.): 0
Adverse Events leading to premature discontinuation, number of patients ([1]; 150 mg q.d.): 8
MI, number of patients ([1]; 150 mg q.d.): 0
Major Bleeds with aspirin, number of patients ([1]; 150 mg q.d.): 0
Major Bleeds without aspirin, number of patients ([1]; 150 mg q.d.): 3
Major Bleeds without aspirin, rate ([1]; 150 mg q.d.): 6.5 % per year
Major Bleeds, number of patients ([1]; 150 mg q.d.): 3
Other MACE, number of patients ([1]; 150 mg q.d.): 0
Stroke and Systemic Thromboembolism, number of patients ([1]; 150 mg q.d.): 3
TIA, number of patients ([1]; 150 mg q.d.): 0
ALT or AST >2xULN, number of patients ([1]; 300 mg b.i.d.): 4
ALT or AST >3xULN and Bili >2xULN within 30 days, number of patients ([1]; 300 mg b.i.d.): 0
ALT or AST >3xULN, number of patients ([1]; 300 mg b.i.d.): 2
ALT or AST >5xULN, number of patients ([1]; 300 mg b.i.d.): 1
Adverse Events leading to premature discontinuation, number of patients ([1]; 300 mg b.i.d.): 21
MI, number of patients ([1]; 300 mg b.i.d.): 0
Major Bleeds with aspirin, number of patients ([1]; 300 mg b.i.d.): 6
Major Bleeds without aspirin, number of patients ([1]; 300 mg b.i.d.): 4
Major Bleeds without aspirin, rate ([1]; 300 mg b.i.d.): 6.3 % per year
Major Bleeds, number of patients ([1]; 300 mg b.i.d.): 10
Other MACE, number of patients ([1]; 300 mg b.i.d.): 1
Stroke and Systemic Thromboembolism, number of patients ([1]; 300 mg b.i.d.): 1
TIA, number of patients ([1]; 300 mg b.i.d.): 0
ALT or AST >2xULN, number of patients ([1]; 300 mg q.d.): 3
ALT or AST >3xULN and Bili >2xULN within 30 days, number of patients ([1]; 300 mg q.d.): 1
ALT or AST >3xULN, number of patients ([1]; 300 mg q.d.): 3
ALT or AST >5xULN, number of patients ([1]; 300 mg q.d.): 3
Adverse Events leading to premature discontinuation, number of patients ([1]; 300 mg q.d.): 19
MI, number of patients ([1]; 300 mg q.d.): 1
Major Bleeds with aspirin, number of patients ([1]; 300 mg q.d.): 2
Major Bleeds without aspirin, number of patients ([1]; 300 mg q.d.): 3
Major Bleeds without aspirin, rate ([1]; 300 mg q.d.): 2.1 % per year
Major Bleeds, number of patients ([1]; 300 mg q.d.): 5
Other MACE, number of patients ([1]; 300 mg q.d.): 1
Stroke and Systemic Thromboembolism, number of patients ([1]; 300 mg q.d.): 5
TIA, number of patients ([1]; 300 mg q.d.): 0
Serious adverse events: cardiac disorders, number of patients ([1]; PETRO-Ex): 80
Serious adverse events: gastrointestinal disorders, number of patients ([1]; PETRO-Ex): 28
Serious adverse events: infections, number of patients ([1]; PETRO-Ex): 34
Serious adverse events: nervous system disorders, number of patients ([1]; PETRO-Ex): 33
Serious adverse events, number of patients ([1]; PETRO-Ex, including bleeding and thrombotic events): 184
ALT or AST >2xULN, number of patients ([1]; Total, all doses): 30
ALT or AST >3xULN and Bili >2xULN within 30 days, number of patients ([1]; Total, all doses): 4
ALT or AST >3xULN, number of patients ([1]; Total, all doses): 18
ALT or AST >5xULN, number of patients ([1]; Total, all doses): 11
Adverse Events leading to premature discontinuation, number of patients ([1]; Total, all doses): 120
MI, number of patients ([1]; Total, all doses): 7
Major Bleeds with aspirin, number of patients ([1]; Total, all doses): 19
Major Bleeds without aspirin, number of patients ([1]; Total, all doses): 26
Major Bleeds without aspirin, rate ([1]; Total, all doses): 3.2 % per year
Major Bleeds, number of patients ([1]; Total, all doses): 44
Other MACE, number of patients ([1]; Total, all doses): 11
Stroke and Systemic Thromboembolism, number of patients ([1]; Total, all doses): 20
TIA, number of patients ([1]; Total, all doses): 1
ALT or AST >3xULN and Bili >2xULN within 30 days, number of patients ([1]; Total, all doses, listed as dabigatran etexilate): four
Oral bioavailability, average ([2]; po): 6.5%
Time to peak levels ([2]; po): 2 to 3 h
Major bleeding events, number ([3]; 300 mg b.i.d. plus ASA groups, 12 weeks): Four
Elevated transaminases >3× upper limit of normal (ULN) ([3]; all dabigatran etexilate-treated patients): 0.9%
Minor bleeding ([3]; in vivo): dose related
Onset of anticoagulant effect after dosing [4]: within one hour

CCOC(=O)CN[C@@H](C(=O)N1CC[C@H]1C(=O)NCc1ccc(/C(N)=N\O)cc1)C1CCCCC1 [Ximelagatran]
Hepatotoxicity [5]: found to be hepatotoxic

[H]/N=C(/N)c1ccc(NCc2nc3cc(C(=O)N(CCC(=O)O)c4ccccn4)ccc3n2C)cc1 [Dabigatran]
LFT abnormality ALT/ULN [1, 7]: >5x (4×) and >5x^# (2×) and >3x (5×) and >3x^#
LFT abnormality AST/ULN [1, 7]: >5x^# (4×) and >5x (4×) and >3x (5×)
Stroke, Ischemic or Unspecified, RR [6]: 0.68
Stroke, systemic embolism, pulmonary embolism, myocardial infarction death or major bleed (net benefit), RR ([6]; Dabigatran 110 mg vs. Warfarin): 0.92
Stroke, systemic embolism, pulmonary embolism, myocardial infarction death or major bleed (net benefit), RR ([6]; Dabigatran 150 mg vs. 110 mg): 0.98
Stroke, systemic embolism, pulmonary embolism, myocardial infarction death or major bleed (net benefit), RR ([6]; Dabigatran 150 mg vs. Warfarin): 0.90
Stroke, RR ([6]; Dabigatran 180 mg vs. 110 mg): 0.70
Hepatotoxicity in serial measurement of liver function tests ([6]; human, in vivo): no evidence of hepatotoxicity
Time to steady-state [2]: 2 to 3 days
Effect on aPTT, ecarin clotting time, and thrombin clotting time [4]: dose dependent prolongation
